Measurements from patent publication US20210213063A1, “COMBINATION THERAPY WITH CHIMERIC ANTIGEN RECEPTOR (CAR) THERAPIES” (Novartis AG, priority 2018, published 2021).

Assays:
MCL = settings: ibrutinib added to CART19 therapy
[1] = system: relapsed/refractory diffuse large B-cell lymphoma (DLBCL); experiment: JULIET (NCT02445248) pivotal phase 2 trial of tisagenlecleucel in adult r/r DLBCL; type: in vivo, human
Source text: This Example describes the JULIET (NCT02445248) clinical trial, which is a single-arm, open-label, multicenter, global, pivotal phase 2 trial of tisagenlecleucel, a chimeric antigen receptor (CAR)-T cell therapy targeting CD19, that has shown a high rate of durable complete responses (CR) and a manageable safety profile in adult patients with relapsed/refractory (r/r) diffuse large B-cell lymphoma (DLBCL). The primary objective was met at the interim analysis, with an overall response rate (ORR) of 59% (CR, 43%; partial response [PR], 16%). An updated analysis of the JULIET trial is presented herein with 19 months of follow-up, an additional 5 months since the previous report.
The primary endpoint was ORR (CR+PR) per independent review committee. Efficacy results are reported for patients in the main cohort with ≥3 months follow-up or earlier discontinuation; safety is reported for all infused patients.
At data cutoff (21 May 2018), 167 patients were enrolled and 115 were infused (99 with US-manufactured [main cohort] and 16 with EU-manufactured [cohort A] tisagenlecleucel) with a single dose of tisagenlecleucel (median, 3.0×10^8 [range, 0.1-6.0×10^8] CAR19-positive viable T cells). 90% of patients received bridging therapy and 93% received lymphodepleting chemotherapy. Median time from infusion to data cutoff was 19.3 months. Median age was 56 years (range, 22-76); 23% were ≥65 years. At study entry, 77% of infused patients had stage III/IV disease, 17% had double/triple hits in MYC/BCL2/BCL6. 55% and 43% had germinal center and activated B-cell molecular subtypes, respectively. 51% of patients had received ≥3 prior lines of antineoplastic therapy (range, 1-6); 49% had undergone a prior ASCT. All 99 patients in the main cohort had ≥3 months of follow-up or discontinued earlier and were evaluable for efficacy. ORR was 54% (95% CI, 43%-64%) with 40% CR and 13% PR. ORR was consistent across prognostic subgroups (including prior ASCT and double/triple-hit lymphoma) Median duration of response (DOR) was not reached; the probability of being relapse-free was 66% (95% CI, 51%-78%) at 6 months and 64% (95% CI, 48%-76%) at 12 months. DOR was similar by age group (≥ vs <65y) and by relapsed or refractory status (Figure). Median OS among all infused patients was 11.1 months (95% CI, 6.6-NE); OS probability at month 12, 48% (95% CI, 38%-57%; max follow-up, 29 months). No patients proceeded to allogeneic/ASCT while in remission.

Compound	CART19-mediated CRS (MCL)	survival of the mice (MCL)	Median OS ([1]; all infused patients, 95% CI 6.6-NE) [months]	probability of being relapse-free ([1]; at 6 months, 95% CI 51%-78%) [%]	probability of being relapse-free ([1]; at 12 months, 95% CI 48%-76%) [%]	OS probability ([1]; at month 12, 95% CI 38%-57%) [%]	CR ([1]; interim analysis) [%]	overall response rate (ORR) ([1]; interim analysis) [%]	partial response [PR] ([1]; interim analysis) [%]	Median duration of response (DOR) ([1]; updated analysis)	ORR ([1]; updated analysis, data cutoff 21 May 2018, 99 patients main cohort, 95% CI 43%-64%) [%]	CR ([1]; updated analysis, main cohort) [%]	PR ([1]; updated analysis, main cohort) [%]
C=CC(=O)N1CCC[C@@H](n2nc(-c3ccc(Oc4ccccc4)cc3)c3c(N)ncnc32)C1 [ibrutinib, 1-[(3R)-3-[4-Amino-3-(4-phenoxyphenyl)-1H-pyrazolo[3,4-d]pyrimidin-1-yl]piperidin-1-yl]prop-2-en-1-one]	reduced the CART19-mediated CRS	prolonged survival	–	–	–	–	–	–	–	–	–	–	–
tisagenlecleucel	–	–	11.1	66	64	48	43	59	16	not reached	54	40	13
